# PubChem BioAssay (NCI)
#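 All cell lines were grown in 96-well plates and treated with compound for 48 hours. Here, GI50 denotes the concentration required for 50% inhibition of growth. TGI denotes the concentration required for complete inhibition of growth.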
# How the values were obtained:
# Experiment in all cases: NCI tumour cell line growth inhibition, 48 h
# LXFL 529 NSCLC = test system: LXFL 529 NSCLC
# M19-MEL melanoma = test system: M19-MEL melanoma
# RXF-631 renal = test system: RXF-631 renal
# DMS 273 small cell lung = test system: DMS 273 small cell lung
# DLD-1 colon = test system: DLD-1 colon
# HOP-18 NSCLC = test system: HOP-18 NSCLC
# DMS 114 small cell lung = test system: DMS 114 small cell lung
# XF 498 CNS = test system: XF 498 CNS
# SR leukemia = test system: SR leukemia
# KM20L2 colon = test system: KM20L2 colon
# EKVX NSCLC = test system: EKVX NSCLC
# SNB-78 CNS = test system: SNB-78 CNS
# SF-295 CNS = test system: SF-295 CNS
compound,measurement,setting,value
NC(N)=NCCCS(=O)(=O)Nc1ccc(Nc2c3ccccc3nc3cc([N+](=O)[O-])ccc23)cc1,TGI,LXFL 529 NSCLC,29.9 µM
same,TGI,M19-MEL melanoma,24.1 µM
same,TGI,RXF-631 renal,> 100 µM
same,TGI,DMS 273 small cell lung,37.2 µM
same,TGI,DLD-1 colon,> 93.4 µM
same,TGI,HOP-18 NSCLC,58.7 µM
same,TGI,DMS 114 small cell lung,28.8 µM
same,TGI,XF 498 CNS,27.9 µM
same,TGI,SR leukemia,> 100 µM
same,TGI,KM20L2 colon,> 76.2 µM
same,TGI,EKVX NSCLC,70.7 µM
same,TGI,SNB-78 CNS,> 63.5 µM
same,TGI,SF-295 CNS,59 µM
CC[n+]1c(/C=C/c2ccc(N(CCCl)CCCl)cc2)ccc2cc(Br)ccc21,TGI,LXFL 529 NSCLC,1.99 µM
same,GI50,M19-MEL melanoma,134 µM
same,TGI,DLD-1 colon,16.1 µM
same,TGI,HOP-18 NSCLC,19.6 µM
same,TGI,DMS 114 small cell lung,15.2 µM
same,TGI,XF 498 CNS,1.18 µM
same,GI50,SR leukemia,132 µM
same,TGI,KM20L2 colon,11.9 µM
same,GI50,EKVX NSCLC,1060 µM
same,TGI,SNB-78 CNS,15.4 µM
same,GI50,SF-295 CNS,1150 µM
